Laboratory results published in patent publication US11046680B1, “Heteroaryl-substituted triazoles as APJ receptor agonists” (priority 2016, dated 2021).

Biological target: human APJ receptor (Homo sapiens (Human), UniProt P35414)
Assay: biochemical
Assay type: biochemical
Settings: [35S]GTPγS binding, CHO membranes expressing human APJ receptor; read-out: Activity hAPJ SPA EC50 IP
Procedure, shortened: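 Membranes of a stable CHO line carrying human APJ (pFLAG-CMV-3) were used in a GTPγS binding format; buffer GDP, MgCl2 and NaCl were optimized, and plates were read after 90 min at RT.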

Sequence of human APJ receptor (P35414 whole entry): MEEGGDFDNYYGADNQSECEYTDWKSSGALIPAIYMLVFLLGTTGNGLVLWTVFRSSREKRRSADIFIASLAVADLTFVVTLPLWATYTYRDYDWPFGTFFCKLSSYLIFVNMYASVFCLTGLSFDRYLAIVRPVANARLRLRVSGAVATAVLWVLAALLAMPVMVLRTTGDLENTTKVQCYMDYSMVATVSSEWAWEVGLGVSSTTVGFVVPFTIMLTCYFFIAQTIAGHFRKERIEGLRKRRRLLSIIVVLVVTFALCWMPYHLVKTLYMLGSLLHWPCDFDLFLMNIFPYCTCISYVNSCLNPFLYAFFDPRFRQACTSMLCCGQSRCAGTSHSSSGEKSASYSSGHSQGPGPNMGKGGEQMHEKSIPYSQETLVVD

COc1cccc(OC)c1-n1c(NS(=O)(=O)[C@@H](C)[C@H](C)c2cnc(C)cn2)nnc1-c1ccn(C)n1 [Example 306.0, (2S,3R)-N-(4-(2,6-dimethoxyphenyl)-5-(1-methyl-1H-pyrazol-3-yl)-4H-1,2,4-triazol-3-yl)-3-(5-methyl-2-pyrazinyl)-2-butanesulfonamide]
EC50: 2.5 nM

(1R,2S)-N-(4-(2,6-dimethoxyphenyl)-5-(1-methyl-1H-pyrazol-3-yl)-4H-1,2,4-triazol-3-yl)-1-(5-fluoro-2-pyridinyl)-1-hydroxy-2-propanesulfonamide and (1S,2R)-N-(4-(2,6-dimethoxyphenyl)-5-(1-methyl-1H-pyrazol-3-yl)-4H-1,2,4-triazol-3-yl)-1-(5-fluoro-2-pyridinyl)-1-hydroxy-2-propanesulfonamide [Example 24.0]
EC50: 0.18 nM

COc1cccc(OC)c1-n1c(NS(=O)(=O)C[C@@H](O)c2ccc(F)cc2F)nnc1-c1ccn(C)n1 (racemic) [Example 116.0, (S)-2-(2,4-difluorophenyl)-N-(4-(2,6-dimethoxyphenyl)-5-(1-methyl-1H-pyrazol-3-yl)-4H-1,2,4-triazol-3-yl)-2-hydroxyethanesulfonamide and (R)-2-(2,4-difluorophenyl)-N-(4-(2,6-dimethoxyphenyl)-5-(1-methyl-1H-pyrazol-3-yl)-4H-1,2,4-triazol-3-yl)-2-hydroxyethanesulfonamide]
EC50: 2.6 nM

COc1cccc(OC)c1-n1c(NS(=O)(=O)[C@H](C)Cc2ncc(F)cn2)nnc1-c1ccn(C)c1 (single isomer, unassigned) [Example 35.0, (R)-N-(4-(2,6-dimethoxyphenyl)-5-(1-methyl-1H-pyrrol-3-yl)-4H-1,2,4-triazol-3-yl)-1-(5-fluoropyrimidin-2-yl)propane-2-sulfonamide or (S)-N-(4-(2,6-dimethoxyphenyl)-5-(1-methyl-1H-pyrrol-3-yl)-4H-1,2,4-triazol-3-yl)-1-(5-fluoropyrimidin-2-yl)propane-2-sulfonamide]
EC50: 27 nM

COc1cccc(OC)c1-n1c(NS(=O)(=O)[C@@H](C)[C@H](OC)c2ncc(C)cn2)nnc1-c1cc(C2CC2)on1 [Example 424.0, (1R,25)-N-(5-(5-cyclopropylisoxazol-3-yl)-4-(2,6-dimethoxyphenyl)-4H-1,2,4-triazol-3-yl)-1-methoxy-1-(5-methylpyrimidin-2-yl)propane-2-sulfonamide]
EC50: 21 nM

COc1ccc(N2CCC2=O)cc1-n1c(NS(=O)(=O)CCc2ccc(F)cc2)nnc1-c1cccs1 [Example 130.0, 2-(4-Fluorophenyl)-N-(4-(2-methoxy-5-(2-oxo-1-azetidinyl)phenyl)-5-(2-thiophenyl)-4H-1,2,4-triazol-3-yl)ethanesulfonamide]
EC50: 3.5 nM

COc1cccc(OC)c1-n1c(NS(=O)(=O)[C@@H](C)[C@H](OC)c2ncc(Cl)cn2)nnc1-c1cc(C)on1 [Example 496.0, (1R,2S)-1-(5-chloropyrimidin-2-yl)-N-(4-(2,6-dimethoxyphenyl)-5-(5-methylisoxazol-3-yl)-4H-1,2,4-triazol-3-yl)-1-methoxypropane-2-sulfonamide]
EC50: 0.62 nM

COc1cccc(OC)c1-n1c(NS(=O)(=O)[C@H](C)Cc2ncc(F)cn2)nnc1-c1nc(C2CC2)cs1 [Example 161.0]
EC50: 3.8 nM

CC(C)O[C@@H](c1ncc(Cl)cn1)[C@H](C)S(=O)(=O)Nc1nnc(-c2ccn(C)n2)n1C1(C)CC1 [Example 538.0, (1S,2S)-1-(5-chloro-2-pyrimidinyl)-N-(4-(1-methylcyclopropyl)-5-(1-methyl-1H-pyrazol-3-yl)-4H-1,2,4-triazol-3-yl)-1-(2-propanyloxy)-2-propanesulfonamide]
EC50: 20 nM

COc1ccc(C(=O)O)cc1-n1c(NS(=O)(=O)Cc2ccc(Cl)cc2)nnc1-c1cccs1 [Example 384.0, 3-(3-((4-Chlorophenyl)methylsulfonamido)-5-(thiophen-2-yl)-4H-1,2,4-triazol-4-yl)-4-methoxybenzoic acid]
EC50: > 12500 nM
